How the values were obtained:
[1] = xn = mol fraction of the nth substance listed; conditions: 298.15 K, 101 kPa, Liquid; for speed of sound: Sing-around technique in a fixed-path interferometer; for mass density: Vibrating tube method
[2] = refractive index (Na D-line) (dimensionless); xn = mol fraction of the nth substance listed; conditions: 298.15 K, 101 kPa, Liquid, Standard Abbe refractometry
[3] = refractive index (Na D-line) (dimensionless); conditions: 101.33 kPa, Liquid, Standard Abbe refractometry
[4] = Liquid; for speed of sound: Sing-around technique in a fixed-path interferometer; for mass density: Vibrating tube method; for viscosity: Capillary tube (Ostwald / Ubbelohde) method

CC(C)O [propan-2-ol] + CCCn1cc[n+](C)c1.O=S(=O)([N-]S(=O)(=O)C(F)(F)F)C(F)(F)F
x1 = 1
Conditions	mass density [kg/m3]	refractive index	speed of sound [m/s]
[1]	780.98	–	1139
[2]	–	1.375	–

CO [methanol]
Conditions	refractive index
[3], 298.15 K	1.32648

[4], 298.15 K, 101 kPa
Conditions	mass density [kg/m3]	speed of sound [m/s]
–	786.59	1103

CCCn1cc[n+](C)c1.O=S(=O)([N-]S(=O)(=O)C(F)(F)F)C(F)(F)F
[3]
Conditions	refractive index
293.15 K	1.42669
298.15 K	1.42525
303.15 K	1.42378
308.15 K	1.42224
313.15 K	1.42076
318.15 K	1.41926
323.15 K	1.41776
328.15 K	1.41625
333.15 K	1.41479
338.15 K	1.41334
343.15 K	1.41185

[4], 101.33 kPa
Conditions	mass density [kg/m3]	speed of sound [m/s]	viscosity [mPa·s]
293.15 K	1479.39	1243	–
298.15 K	1474.44	1232	43.7
303.15 K	1469.5	1221	35.68
308.15 K	1464.58	1210	29.51
313.15 K	1459.67	1199	24.77
318.15 K	1454.78	1188	21.01
323.15 K	1449.91	1178	18.04
328.15 K	1445.06	1168	15.59
333.15 K	1440.23	1157	13.63
338.15 K	1435.42	1147	12.02
343.15 K	1430.62	1137	10.66

CCCn1cc[n+](C)c1.O=S(=O)([N-]S(=O)(=O)C(F)(F)F)C(F)(F)F + CCCO
Conditions	mass density, [1] [kg/m3]	refractive index, [2]	speed of sound, [1] [m/s]
x2 = 0	1474.44	1.42525	1232
x2 = 0.0787	1457.82	1.42424	1228
x2 = 0.1022	1452.69	1.42391	1227
x2 = 0.247	1417.04	1.42164	1220
x2 = 0.39	1372.22	1.41887	1212
x2 = 0.442	1352.74	1.41758	1208
x2 = 0.4877	1333.71	1.41661	1205
x2 = 0.569	1294.62	1.41422	1198
x2 = 0.6455	1250.12	1.41148	1191
x2 = 0.703	1209.58	1.40897	1187
x2 = 0.75	1170.92	1.40667	1183
x2 = 0.8048	1117.65	1.40345	1179
x2 = 0.8492	1066.16	1.40025	1178

CCCn1cc[n+](C)c1.O=S(=O)([N-]S(=O)(=O)C(F)(F)F)C(F)(F)F + CC(C)O
Conditions	mass density, [1] [kg/m3]	refractive index, [2]	speed of sound, [1] [m/s]
x2 = 0	1474.44	1.42525	1232
x2 = 0.0493	1463.7	1.42452	1228
x2 = 0.0921	1454.1	1.42385	1226
x2 = 0.291	1401.23	1.42016	1212
x2 = 0.4093	1360.46	1.41732	1202
x2 = 0.5071	1318.46	1.41439	1191
x2 = 0.6113	1262.2	1.41043	1178
x2 = 0.6964	1203.91	1.40624	1166
x2 = 0.803	1106.76	1.39926	1148
x2 = 0.9009	979.02	1.39013	1135
x2 = 0.9503	892.06	1.38375	1134

CCCO [propan-1-ol] + CCCn1cc[n+](C)c1.O=S(=O)([N-]S(=O)(=O)C(F)(F)F)C(F)(F)F
x1 = 1
Conditions	mass density [kg/m3]	refractive index	speed of sound [m/s]
[1]	800.09	–	1207
[2]	–	1.38307	–

CO [methanol] + CCCn1cc[n+](C)c1.O=S(=O)([N-]S(=O)(=O)C(F)(F)F)C(F)(F)F
x1 = 1
Conditions	mass density [kg/m3]	refractive index	speed of sound [m/s]
[1]	786.59	–	1103
[2]	–	1.32648	–

CCO [ethanol] + CCCn1cc[n+](C)c1.O=S(=O)([N-]S(=O)(=O)C(F)(F)F)C(F)(F)F
x1 = 1
Conditions	mass density [kg/m3]	refractive index	speed of sound [m/s]
[1]	785.33	–	1144
[2]	–	1.35929	–

CCCn1cc[n+](C)c1.O=S(=O)([N-]S(=O)(=O)C(F)(F)F)C(F)(F)F + CO
Conditions	mass density, [1] [kg/m3]	refractive index, [2]	speed of sound, [1] [m/s]
x2 = 0	1474.44	1.42525	1232
x2 = 0.099	1463.12	1.4237	1228
x2 = 0.2012	1449.69	1.42185	1223
x2 = 0.2973	1434.29	1.41964	1218
x2 = 0.4068	1411.9	1.41652	1211
x2 = 0.5067	1385.1	1.41274	1203
x2 = 0.601	1351.31	1.40806	1192
x2 = 0.6936	1305.17	1.40193	1179
x2 = 0.7948	1228.8	1.39113	1159
x2 = 0.9009	1085.51	1.37097	1129
x2 = 0.9499	972.1	1.35417	1115

CCCn1cc[n+](C)c1.O=S(=O)([N-]S(=O)(=O)C(F)(F)F)C(F)(F)F + CCO
Conditions	mass density, [1] [kg/m3]	refractive index, [2]	speed of sound, [1] [m/s]
x2 = 0	1474.44	1.42525	1232
x2 = 0.053	1465.87	1.42443	1230
x2 = 0.099	1458.19	1.42378	1227
x2 = 0.1914	1441.04	1.42214	1223
x2 = 0.2948	1418.06	1.42008	1216
x2 = 0.3909	1391.82	1.41788	1209
x2 = 0.4992	1354.59	1.41421	1200
x2 = 0.5912	1313.64	1.41045	1190
x2 = 0.6978	1249.77	1.4045	1176
x2 = 0.7938	1167.28	1.39689	1162
x2 = 0.895	1033.88	1.38426	1146
x2 = 0.9431	940.65	1.37524	1142

CC(C)O [propan-2-ol]
Conditions	refractive index
[3], 298.15 K	1.375

[4], 298.15 K, 101 kPa
Conditions	mass density [kg/m3]	speed of sound [m/s]
–	780.98	1139

CCCO [propan-1-ol]
Conditions	refractive index
[3], 298.15 K	1.38307

[4], 298.15 K, 101 kPa
Conditions	mass density [kg/m3]	speed of sound [m/s]
–	800.09	1207

CCO [ethanol]
Conditions	refractive index
[3], 298.15 K	1.35929

[4], 298.15 K, 101 kPa
Conditions	mass density [kg/m3]	speed of sound [m/s]
–	785.33	1144

— the NIST ThermoML archive (doi:10.1016/j.jct.2011.08.028)
